# Key:
# [1] = system: Jurkat (acute T-cell leukemia, ATCC TIB-152); experiment: Cytotoxicity, MTT assay, Jurkat; type: cell-based, human
# Method: (§1) For loosely adherent cells and cells growing in suspension, the MTT-assay^[a] was used. Suspension cells were seeded at a density of 8000 cells/well (100 μl). In case of suspension cells, 100 μl of medium, containing the test compounds bendamustine HCl and bendamustine mofetil ester (or bendamustine methyl ester), were added directly after seeding of the cells. Loosely adherent cells were seeded at a density of 5000 cells/well (100 μl) and treated as described for the crystal violet assay.
# (§2) In all cases, one plate was measured at the time, when substances were added (t0-plate). The MTT-(2.5 mg/ml) solution (PBS) was freshly prepared for each measurement. 20 μl of this solution were added per well (100 μl) of each plate at subsequent days. Incubation period with MTT was 3 hours at 37° C. After incubation, the plates were centrifuged, and the medium was removed to a residual volume of 50 μl per well. Then, 100 μl of DMSO were added, and the plates were shaken for 1 hour. Absorbance was measured at a wavelength of 580 nm.
# (§3) Eight different human cancer cell lines were treated according to the above general procedure for comparative determination of cytotoxicity of bendamustine-HCl and bendamustine mofetil ester.
# [2] = system: SK-ES1 (Ewing sarcoma, ATCC HTB-86); experiment: Cytotoxicity, MTT assay, SK-ES1; type: cell-based, human
# Method: as §1, §2, §3
# [3] = system: human malignant tumour cell lines; experiment: Comparative cytotoxicity, all cell lines investigated; type: cell-based; conditions: against all human malignant tumour cell lines investigated (Table 1)
# Method: (§4) For the determination of cytotoxicity two different assays were used depending on the characteristics of the treated cells. For adherently growing cells the crystal violet assay^[b] was used. Instead of complete removal of the conditioned culture medium, 100 μl of fresh medium, containing a two-fold higher concentration of the test compounds than the desired final concentration were added 2-3 days after seeding the cells at a density of about 5000 cells/well (100 μl).
# as §1
# In all cases, one plate was measured at the time, when substances were added (t0-plate). The MTT-(2.5 mg/ml) solution (PBS) was freshly prepared for each measurement. 20 μl of this solution were added per well (100 μl) of each plate at subsequent days. Incubation period with MTT was 3 hours at 37° C. […] Absorbance was measured at a wavelength of 580 nm. […]
# [4] = system: U-937 (histocytic lymphoma, ATCC CRL-1593.2); experiment: Cytotoxicity, MTT assay, U-937; type: cell-based, human
# Method: as §1, §2, §3
# [5] = system: Capan-1 (pancreatic carcinoma, ATCC HTB-80); experiment: Cytotoxicity, crystal violet assay, Capan-1; type: cell-based, human
# Method: as §4, §3
# [6] = system: MG-63 (osteosarcoma, ATCC CRL-1427); experiment: Cytotoxicity, crystal violet assay, MG-63; type: cell-based, human
# Method: as §4, §3
# [7] = system: NCl-H460 (large cell bronchial carcinoma, ATCC HTB-177); experiment: Cytotoxicity, crystal violet assay, NCl-H460; type: cell-based, human
# Method: as §4, §3
# [8] = system: LnCap clone FGC (prostate cancer, metastasis of a subclavicular lymph node, ATCC CRL-1740); experiment: Cytotoxicity, MTT assay, LnCap clone FGC; type: cell-based, human
# Method: as §1, §2, §3
# [9] = system: HEL92.1.7 (erythroleukemia, ATCC TIB-180); experiment: Cytotoxicity, MTT assay, HEL92.1.7; type: cell-based, human
# Method: as §1, §2, §3
# [10] = Homo sapiens, long-term exposure (96 h), MTT assay, errors as 95% confidence intervals
structure (smiles),measurement,setting,value
"Cn1c(CCCC(=O)OCCN2CCOCC2)nc2cc(N(CCCl)CCCl)ccc21 [bendamustine mofetil ester, 2-morpholinoethyl 4-(5-(bis(2-chloroethyl)amino)-1-methyl-1H-benzo[d]imidazol-2-yl)butanoate]",ratio (IC50 bendamustine-HCl / IC50 bendamustine mofetil ester),[1]; 96 h,10.1
same,IC50,[1]; [10],4.2 ± 0.3 µM
same,IC50,"[2]; Homo sapiens, SK-ES1, long-term exposure (96 h), MTT assay, errors as 95% confidence intervals",0.9 ± 0.2 µM
same,ratio (IC50 bendamustine-HCl / IC50 bendamustine mofetil ester),"[2]; SK-ES1, 96 h",12.2
same,cytotoxicity compared to bendamustine-HCl,[3],remarkably enhanced cytotoxicity
same,IC50,"[4]; Homo sapiens, U-937, long-term exposure (96 h), MTT assay, errors as 95% confidence intervals",4.2 ± 0.9 µM
same,ratio (IC50 bendamustine-HCl / IC50 bendamustine mofetil ester),"[4]; U-937, 96 h",21.9
same,ratio (IC50 bendamustine-HCl / IC50 bendamustine mofetil ester),"[5]; Capan-1, 96 h",19.4
same,IC50,"[5]; Homo sapiens, Capan-1, long-term exposure (96 h), crystal violet assay, errors as 95% confidence intervals",1.3 ± 0.3 µM
same,IC50,"[6]; Homo sapiens, MG-63, long-term exposure (96 h), crystal violet assay, errors as 95% confidence intervals",3.4 ± 0.7 µM
same,ratio (IC50 bendamustine-HCl / IC50 bendamustine mofetil ester),"[6]; MG-63, 96 h",16.2
same,IC50,"[7]; Homo sapiens, NCl-H460, long-term exposure (96 h), crystal violet assay, errors as 95% confidence intervals",8.6 ± 0.6 µM
same,ratio (IC50 bendamustine-HCl / IC50 bendamustine mofetil ester),"[7]; NCl-H460, 96 h",10.4
same,ratio (IC50 bendamustine-HCl / IC50 bendamustine mofetil ester),[8]; 96 h,34.1
same,IC50,[8]; [10],2.1 ± 0.6 µM
same,ratio (IC50 bendamustine-HCl / IC50 bendamustine mofetil ester),"[9]; HEL92.1.7, 96 h",24.7
same,IC50,"[9]; Homo sapiens, HEL 92.1.7, HEL92.1.7, long-term exposure (96 h), MTT assay, errors as 95% confidence intervals",3.4 ± 0.4 µM

# From US8809549B2, “Esters of bendamustine and related compounds, and medical use thereof” (Arevipharma GmbH, priority 2012, dated 2014)
